These results are taken from patent publication US7863271B2, “2-aminobenzoxazole carboxamides as 5HT3 modulators” (Albany Molecular Research, Inc., priority 2006, dated 2011).

Structures are written as SMILES. pKi: −log10 of the molar value. Counter-ions that a name gives are not always drawn.

For experiment [1], the target named is T1, 5-HT3 receptors (Mus musculus, UniProt P23979).
T1 construct: from tissue; host or cells: whole animal: male or female CD-1(Crl.) mice
T1 sequence (P23979 24-489): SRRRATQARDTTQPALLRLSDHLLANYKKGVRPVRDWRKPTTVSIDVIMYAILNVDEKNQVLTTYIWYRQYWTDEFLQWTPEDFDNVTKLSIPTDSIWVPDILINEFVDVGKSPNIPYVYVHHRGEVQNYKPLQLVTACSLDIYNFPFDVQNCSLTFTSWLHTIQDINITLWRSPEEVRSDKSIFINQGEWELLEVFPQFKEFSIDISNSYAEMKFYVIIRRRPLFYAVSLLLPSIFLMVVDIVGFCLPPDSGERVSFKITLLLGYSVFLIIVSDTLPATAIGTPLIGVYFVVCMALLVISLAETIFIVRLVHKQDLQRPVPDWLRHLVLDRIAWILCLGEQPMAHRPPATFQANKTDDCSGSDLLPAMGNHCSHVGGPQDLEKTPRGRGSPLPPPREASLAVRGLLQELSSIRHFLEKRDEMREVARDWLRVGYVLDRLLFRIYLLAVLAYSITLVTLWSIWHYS
The experiment is described as follows: Bezold-Jarisch assay in vivo: inhibition of serotonin induced bradycardia. The following applies: read-out: % Inhibition @ dose of test substance (p.o.); for inhibition at 3 mg/kg: 3 mg/kg p.o. How it is done:
Bezold-Jarisch Assay in vivo. […] Arch. Int. Pharmacodyn. 277: 235-252, 1985]. Test substances and vehicle [2% Tween 80] were each administered orally (0.3 to 3 mg/kg) to a group of 5 male or female CD-1(Crl.) mice each weighing 24±2 g. A dosing volume of 10 mL/kg was used. Sixty minutes later, 5-HT (0.1 mg/kg IV)-induced bradycardia was recorded in urethane (2225-2500 mg/kg IP, given 10 minutes before 5-HT)-anesthetized animals.
In vivo 5-HT3 Antagonism in the mouse (Bradycardia Reflex)

Experiment [2] concerns the target T2, 5-HT3 (Homo sapiens, UniProt P46098).
T2 sequence (P46098 24-478): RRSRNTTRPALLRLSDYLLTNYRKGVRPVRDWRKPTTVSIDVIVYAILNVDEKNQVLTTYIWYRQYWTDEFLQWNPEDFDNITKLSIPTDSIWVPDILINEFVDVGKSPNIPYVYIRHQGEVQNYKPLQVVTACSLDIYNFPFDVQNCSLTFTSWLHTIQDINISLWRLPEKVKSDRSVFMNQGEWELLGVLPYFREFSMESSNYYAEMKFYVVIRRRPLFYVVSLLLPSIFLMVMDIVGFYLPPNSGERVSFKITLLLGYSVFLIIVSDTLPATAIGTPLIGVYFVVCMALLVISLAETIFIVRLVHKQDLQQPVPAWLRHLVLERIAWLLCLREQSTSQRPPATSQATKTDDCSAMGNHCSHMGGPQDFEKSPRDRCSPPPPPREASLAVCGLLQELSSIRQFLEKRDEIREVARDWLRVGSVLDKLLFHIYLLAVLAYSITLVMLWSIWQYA
The experiment is described as follows: Compound affinity for the human 5-HT3 receptor (Assay B), SPA radioligand binding with [9-methyl-3H]BRL-43694. On the set-up: purchased Perkin Elmer. The gist of the method:
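Ten competitor concentrations in duplicate; specific binding (total minus nonspecific) fitted for IC50, converted to Ki by Cheng-Prusoff.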

Experiment [3] deals with T2, 5-HT3. The experiment is described as follows: Compound affinity for the human 5-HT3 receptor (Assay A), [3H]-GR65630 radioligand binding. Further details: host or cells: N1E-155 cell lines (so in the source). The settings on record: annotated (A): Assay A. Here is the method: Compound Affinity for the human 5-HT3 Receptor (Assay A)
Compounds were tested by MDS Pharma Services—Taiwan Ltd., 158 Li-The Road, Peitou, Taipei, Taiwan 112 R.O.C. In order to evaluate the relative affinity of the various compounds for the human 5-HT3 receptor, N1E-155 cell lines were developed to express the target protein. For binding, these cells were homogenized, centrifuged and washed with buffer (20 mM HEPES, 150 mM NaCl, pH 7.4) then suspended in 0.5 mL of buffer and [3H]-GR65630 added at a concentration of 3.5×10^-10 M. An initial single concentration of 10^-7 M of the test compound was then added. Incubation was carried out at room temperature for 60 minutes at 25° C. then was terminated by rapid removal of the incubation medium. Radioactivity was assessed using liquid scintillation spectrophotometry after exposure to scintillation cocktail for at least three hours. […] Ki values were then calculated from the Cheng-Prusoff equation. In all of the above binding studies the non-specific determinant was MDL-72222 (1.0 μM).

For experiment [4], the target named is T2, 5-HT3. The experiment is described as follows: 5-HT3 inhibitor screen with potency threshold (not further specified). It is filed as binding.
[5] abbreviates: 5-HT (0.1 mg/kg IV)-induced bradycardia 60 min later.

Usually inhibition stands for the percentage by which the read-out fell short of the control. One may read the pKi as the negative decadic logarithm of the Ki, by convention in mol/L. `C[C@@H]1CNC[C@H](C)N1c1nc2c(C(=O)NC3CC4CCCC(C3)N4C)cccc2o1` (relative stereo) [Example 50, Endo-N-(9-Methyl-9-azabicyclo[3.3.1]nonan-3-yl)-2-((2S*,6R*)-2,6-dimethylpiperazin-1-yl)benzoxazole-4-carboxamide Hydrochloride]: in experiment [1] (setting [5]), the inhibition at 3 mg/kg was 80%. The same compound gave a pKi in experiment [2] of 7.87.
On to `CN(C)c1nc2c(C(=O)N[C@@H]3CN4CCC3CC4)cccc2o1` [Example 8, (S)—N-(quinuclidine-8-yl)-2-(dimethylamino)benzoxazole-4-carboxamide Hydrochloride], for which, in experiment [1], the inhibition at 0.3 mg/kg turned out to be 83%. For the same compound, the negative logarithm of the Ki (pKi) in experiment [2] (Assay B (method B unless otherwise annotated), read-out: 5-HT3 Ki) is 7.74.
The compound `CSc1nc2c(C(=O)N[C@H]3C[C@H]4CCC[C@@H](C3)N4C)cccc2o1` [Example 13, Endo-N-(9-Methyl-9-azabicyclo[3.3.1]non-3-yl)-2-methylthiobenzoxazole-4-carboxamide Hydrochloride] had a pKi in experiment [3] of 8.34.
The same measure, in the same setting: to `CSc1nc2c(C(=O)N[C@@H]3CN4CCC3CC4)cccc2o1` [Example 14, (S)—N-(quinuclidine-8-yl)-2-(methylthio)benzoxazole-4-carboxamide Hydrochloride] belongs 8.59.
As to `C[C@H]1CN(C)CCN1c1nc2c(C(=O)NC3CC4CCCC(C3)N4C)cccc2o1` (stereo partly drawn) [Example 55, Endo-N-(9-Methyl-9-azabicyclo[3.3.1]nonan-3-yl)-2-((S)-2,4-dimethylpiperazin-1-yl)benzoxazole-4-carboxamide Hydrochloride], the “level of potency established as the threshold for the screen” value in experiment [4] is “has not exhibited the level of potency established as the threshold for the screen”. In addition, in experiment [2], the pKi is 7.54.
On to `C[C@H]1COC[C@H](C)N1c1nc2c(C(=O)NC3CC4CCCC(C3)N4C)cccc2o1` (stereo partly drawn) [Example 75, Endo-N-(9-Methyl-9-azabicyclo[3.3.1]nonan-3-yl)-2-((3S,5S)-3,5-dimethylmorpholino)benzoxazole-4-carboxamide Hydrochloride], for which the inhibition at 1 mg/kg in experiment [1] (1 mg/kg p.o., 5-HT (0.1 mg/kg IV)-induced bradycardia 60 min later) came to 98%. The compound also gave a pKi in experiment [2] of 9.23.
With `Nc1nc2c(C(=O)NC3CN4CCC3CC4)cccc2o1` [Example 93, (S)—N-(Quinulidin-8-yl)-2-aminobenzoxazole-4-carboxamide Hydrochloride], the inhibition at 3 mg/kg in experiment [1] (setting [5]) amounted to 85%. In addition, in experiment [2], the negative logarithm of the Ki (pKi) was 7.92.
On to `Nc1nc2c(C(=O)NC3CN4CCC3CC4)cc(Cl)cc2o1` (stereo not shown) [Example 103, Hydrochloride], for which the inhibition at 3 mg/kg in experiment [1] (setting [5]) was 97%. Further, the pKi in experiment [2] is 8.29.
As to `Nc1nc2c(C(=O)NC3CN4CCC3CC4)cc(F)cc2o1` [Example 116, (S)—N-(Quinulidin-8-yl)-2-amino-6-fluorobenzoxazole-4-carboxamide Hydrochloride], the inhibition at 3 mg/kg in experiment [1] (setting [5]) was 97%. For the same compound, the pKi in experiment [2] is 8.03.
